The assay deals with Amyloid-beta precursor protein (Homo sapiens) (UniProt P05067). Nature of the assay: Binding affinity to amyloid beta (1 to 40 residues) (unknown origin) aggregation assessed as fold increase in fluorescence intensity.
Sequence of Amyloid-beta precursor protein (Homo sapiens) (P05067 whole entry, the tested form may be a part): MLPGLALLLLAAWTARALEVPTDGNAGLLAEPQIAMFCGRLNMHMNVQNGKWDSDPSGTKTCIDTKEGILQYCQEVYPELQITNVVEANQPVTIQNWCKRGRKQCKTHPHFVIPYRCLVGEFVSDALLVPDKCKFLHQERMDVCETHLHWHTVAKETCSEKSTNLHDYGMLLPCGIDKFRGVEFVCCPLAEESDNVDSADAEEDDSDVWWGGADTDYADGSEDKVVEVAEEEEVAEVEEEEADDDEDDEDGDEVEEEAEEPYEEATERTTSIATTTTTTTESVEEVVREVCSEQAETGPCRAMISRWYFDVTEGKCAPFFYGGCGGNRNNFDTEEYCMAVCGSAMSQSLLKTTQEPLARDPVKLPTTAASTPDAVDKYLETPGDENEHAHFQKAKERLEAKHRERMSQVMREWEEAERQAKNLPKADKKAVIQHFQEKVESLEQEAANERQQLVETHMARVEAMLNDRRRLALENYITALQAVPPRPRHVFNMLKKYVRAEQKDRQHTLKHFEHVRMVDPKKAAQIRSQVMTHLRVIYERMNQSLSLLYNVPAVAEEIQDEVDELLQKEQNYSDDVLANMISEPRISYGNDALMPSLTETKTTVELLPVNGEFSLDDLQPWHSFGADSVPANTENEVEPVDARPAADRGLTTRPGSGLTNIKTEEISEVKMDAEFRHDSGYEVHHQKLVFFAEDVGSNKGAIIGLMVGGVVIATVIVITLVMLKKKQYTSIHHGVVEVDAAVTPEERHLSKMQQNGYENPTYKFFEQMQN

In the case of `CN(C)c1ccc(/C=C/C2=CC(/C=C/c3ccc(N(C)C)cc3)=[O+][B-](F)(F)O2)cc1`, the fold change (FC) was 70.

Source of the values: ChEMBL document CHEMBL5321238, “Small-molecule theranostics in Alzheimer's disease” (Eur J Med Chem, 2023).
